The CheMixHub viscosity set
± gives the uncertainty stated by the source.

Test: xn = mol fraction of the nth substance listed

Cc1ccccc1C + CCCCCCCCCCO
viscosity [mPa·s], 101 kPa
Conditions | 298.15 K | 308.15 K
x1 = 0.0766 | 9.611 ± 0.065 | 6.581 ± 0.046
x1 = 0.1331 | 8.188 ± 0.055 | 5.606 ± 0.04
x1 = 0.1823 | 7.108 ± 0.048 | 4.864 ± 0.035
x1 = 0.2509 | 5.802 ± 0.04 | 3.987 ± 0.028
x1 = 0.3173 | 4.749 ± 0.033 | 3.288 ± 0.023
x1 = 0.3896 | 3.813 ± 0.026 | 2.671 ± 0.019
x1 = 0.4556 | 3.107 ± 0.021 | 2.214 ± 0.016
x1 = 0.5261 | 2.509 ± 0.017 | 1.815 ± 0.013
x1 = 0.6054 | 1.983 ± 0.014 | 1.459 ± 0.011
x1 = 0.6597 | 1.695 ± 0.012 | 1.264 ± 0.01
x1 = 0.7364 | 1.374 ± 0.011 | 1.041 ± 0.009
x1 = 0.8029 | 1.156 ± 0.009 | 0.895 ± 0.008
x1 = 0.873 | 0.977 ± 0.009 | 0.781 ± 0.008
x1 = 0.9447 | 0.84 ± 0.008 | 0.698 ± 0.008

Cc1ccccc1C + CCCCCC
viscosity [mPa·s], 101.33 kPa
Conditions | x2 = 0.29 | x2 = 0.6 | x2 = 0.79
293.15 K | 0.5875 ± 0.012 | 0.4736 ± 0.0095 | 0.3659 ± 0.0073
313.15 K | 0.4679 ± 0.0094 | 0.3797 ± 0.0076 | 0.3022 ± 0.006

CCOC(=O)OCC + CCCCCCO
101 kPa
Conditions | viscosity [mPa·s]
293.15 K, x1 = 0.0551 | 4.432
293.15 K, x1 = 0.1001 | 3.822
293.15 K, x1 = 0.2106 | 2.778
293.15 K, x1 = 0.3101 | 2.17
293.15 K, x1 = 0.4052 | 1.77
293.15 K, x1 = 0.5061 | 1.454
293.15 K, x1 = 0.6093 | 1.229
293.15 K, x1 = 0.7555 | 0.999
293.15 K, x1 = 0.7968 | 0.958
293.15 K, x1 = 0.8927 | 0.868
293.15 K, x1 = 0.9522 | 0.826
303.15 K, x1 = 0.05134 | 3.305
303.15 K, x1 = 0.1004 | 2.818
303.15 K, x1 = 0.2102 | 2.088
303.15 K, x1 = 0.3094 | 1.667
303.15 K, x1 = 0.4091 | 1.367
303.15 K, x1 = 0.5094 | 1.145
303.15 K, x1 = 0.6017 | 0.998
303.15 K, x1 = 0.7089 | 0.873
303.15 K, x1 = 0.8045 | 0.795
303.15 K, x1 = 0.9051 | 0.734
303.15 K, x1 = 0.9543 | 0.715
313.15 K, x1 = 0.06803 | 2.378
313.15 K, x1 = 0.222 | 1.602
313.15 K, x1 = 0.3216 | 1.303
313.15 K, x1 = 0.4055 | 1.125
313.15 K, x1 = 0.5084 | 0.954
313.15 K, x1 = 0.6037 | 0.839
313.15 K, x1 = 0.7059 | 0.748
313.15 K, x1 = 0.8097 | 0.682
313.15 K, x1 = 0.9065 | 0.642
313.15 K, x1 = 0.957 | 0.625
